Conditions: acidic group

Question: With `O=S(=O)(O)c1ccc(O)cc1` as the molecule, how does the pKa read?
Answer: Its pKa is 4.51.

Question: For `NS(=O)(=O)C(F)(F)I`, which pKa is on record?
Answer: The pKa was 6.79.

Question: With `C=C/C(C)=C/[C@@H](C)C(=O)C[C@@H](O)CC1CC(=O)NC(=O)C1` as the molecule, how does the pKa read?
Answer: The pKa was 11.2.

Question: With `Cc1ccc(C(=O)NO)cc1` as the molecule, how does the pKa read?
Answer: Its pKa is 8.9.

Question: Which pKa does the source give for `C=C(F)C(=O)O` here?
Answer: Its pKa is 2.55.

Question: With `CCc1ccc(C(=O)/C=C/C(=O)O)cc1` as the molecule, how does the pKa read?
Answer: The pKa was 3.38.

Question: Which pKa does the source give for `O=C(O)C1CCCC[NH2+]1` (configuration not stated) here?
Answer: The pKa was 2.5.

Question: Which pKa does the source give for `FC(F)(F)c1nc2ncncc2[nH]1` here?
Answer: The pKa was 5.12.

Question: With `O/N=C/c1ccccc1O` as the molecule, how does the pKa read?
Answer: The pKa was 9.21.

Question: Which pKa does the source give for `CC(=O)NCCS` here?
Answer: The pKa was 9.5.

Question: Which pKa does the source give for `CNC[C@H](O)c1cccc(O)c1` here?
Answer: Its pKa is 9.84.

Question: Which pKa does the source give for `CC[C@@H](C(=O)O)[C@@]1(O)C[C@H]2CC[C@@H]1C2` here?
Answer: The pKa was 4.26.

Question: For `C[C@@H]1C[C@@H]1C(=O)O`, which pKa is on record?
Answer: The pKa was 5.03.

Question: With `CC(C)(C)c1cc(/C=C/Cl)cc(C(C)(C)C)c1O` as the molecule, how does the pKa read?
Answer: Its pKa is 11.8.

Question: Which pKa does the source give for `Cc1ccc(S(=O)(=O)N[C@@H](CCC(N)=O)C(=O)[O-])cc1` here?
Answer: The pKa was 11.8.

Question: Which pKa does the source give for `CC(C)C1NC(=S)NC1=O` (configuration not stated) here?
Answer: Its pKa is 8.7.

Question: Which pKa does the source give for `O=C(Cc1ccccc1)c1cc[n+](Cc2ccc([N+](=O)[O-])cc2)cc1` here?
Answer: The pKa was 8.68.

Question: With `Cn1c[nH+]c(C(=O)O)c1C(=O)O` as the molecule, how does the pKa read?
Answer: Its pKa is -0.88.

Question: Which pKa does the source give for `CCOC(=O)COc1ccc(S(=O)(=O)c2ccc(O)c(C[NH3+])c2)c(Cl)c1Cl` here?
Answer: The pKa was 6.67.

Question: Which pKa does the source give for `CC(=O)NCc1cc(C)cc(CNC(C)=O)c1O` here?
Answer: Its pKa is 9.

Question: Which pKa does the source give for `CC(C)(S)CN` here?
Answer: The pKa was 11.

Question: With `O=C([O-])c1cccc(O)c1` as the molecule, how does the pKa read?
Answer: The pKa was 9.81.

Question: With `N#Cc1ccc(-c2nnn[nH]2)cc1` as the molecule, how does the pKa read?
Answer: Its pKa is 3.53.

Question: With `CC(C)(C)[NH2+]CC(=O)c1ccc(O)cc1` as the molecule, how does the pKa read?
Answer: The pKa was 7.9.

Question: Which pKa does the source give for `Oc1ccc2ncccc2c1` here?
Answer: Its pKa is 8.82.

Question: For `O=C(O)c1cc(Cl)cc([N+](=O)[O-])c1`, which pKa is on record?
Answer: Its pKa is 2.17.

Question: With `S=C(Nc1ccc(Cl)cc1)c1ccccc1` as the molecule, how does the pKa read?
Answer: The pKa was 10.8.

Question: For `O=C1C[C@H](C(=O)O)[C@@H](C(=O)O)O1`, which pKa is on record?
Answer: Its pKa is 2.26.

Question: For `C[n+]1ccc2ccccc2c1S`, which pKa is on record?
Answer: The pKa was -2.13.

Question: For `O=c1cc(S(=O)(=O)[O-])[nH]c(=O)[nH]1`, which pKa is on record?
Answer: Its pKa is 7.26.

Question: Which pKa does the source give for `O/N=C/c1ccccn1` here?
Answer: The pKa was 10.1.

Question: Which pKa does the source give for `Cc1ccc2c(c1O)-c1c-2ccc(C)c1O` here?
Answer: The pKa was 8.04.

Question: For `Cc1ccc(Cl)c(C(=O)O)c1`, which pKa is on record?
Answer: The pKa was 3.12.

Question: For `Nc1nc2[nH]cnc2c(O)[nH+]1`, which pKa is on record?
Answer: The pKa was 3.

Question: For `CCOC(=O)C(Cc1ccc(C)cc1)C(C)=O` (configuration not stated), which pKa is on record?
Answer: The pKa was 11.9.

Question: Which pKa does the source give for `Cc1ccc(C(=O)O)c(I)c1` here?
Answer: Its pKa is 3.2.

Question: For `CC1=NCCc2c1[nH]c1ccc([N+](=O)[O-])cc21`, which pKa is on record?
Answer: Its pKa is 12.6.

Question: For `NC1=NS(=O)(=O)[N-]c2nc[nH]c21`, which pKa is on record?
Answer: Its pKa is 12.2.

Question: With `O=C(Oc1ccc([N+](=O)[O-])cc1[N+](=O)[O-])c1ccc(O)cc1` as the molecule, how does the pKa read?
Answer: The pKa was 7.68.

Question: For `CC(C)C1=CC2=CC[C@H]3[C@@](C)(CCC[C@]3(C)C(=O)O)[C@@H]2CC1`, which pKa is on record?
Answer: The pKa was 6.4.

Question: For `Oc1ccc2c(cnc3ccccc32)c1`, which pKa is on record?
Answer: Its pKa is 8.68.

Question: Which pKa does the source give for `CCN(CC)S(=O)(=O)c1ccccc1C(=O)O` here?
Answer: The pKa was 2.96.

Question: With `O/N=C1\CCCC\C1=N/O` as the molecule, how does the pKa read?
Answer: The pKa was 10.5.

Question: For `Oc1c(Cl)cccc1Cl`, which pKa is on record?
Answer: The pKa was 6.8.

Question: For `CN(C)C(=O)/C=C(\O)c1ccncc1`, which pKa is on record?
Answer: The pKa was 7.32.

Question: With `CCOc1ccc(C(=O)O)cc1` as the molecule, how does the pKa read?
Answer: Its pKa is 4.64.

Question: Which pKa does the source give for `Brc1ccc([P+](c2ccccc2)(c2ccccc2)C2c3ccccc3-c3ccccc32)cc1` here?
Answer: Its pKa is 8.67.

Question: For `On1nnc2cc(Cl)ccc21`, which pKa is on record?
Answer: Its pKa is 4.18.

Question: For `O=C1CCCCC1=O`, which pKa is on record?
Answer: The pKa was 10.3.

Question: Which pKa does the source give for `O=C(C[n+]1cccc2c3ccccc3ccc21)c1ccccc1` here?
Answer: The pKa was 11.3.

Question: For `Oc1ccc2cccc(I)c2c1`, which pKa is on record?
Answer: The pKa was 8.98.

Question: Which pKa does the source give for `Brc1cccc(-c2nnn[nH]2)c1` here?
Answer: The pKa was 3.82.

Same assay, conditions: basic group

Question: Which pKa does the source give for `COc1ccc2c(c1)CC(C)N2` (configuration not stated) here?
Answer: Its pKa is 6.2.

Question: With `CNc1cccc2ccccc12` as the molecule, how does the pKa read?
Answer: Its pKa is 3.7.

Question: For `Cc1cccc(N)c1-c1c(C)cccc1N`, which pKa is on record?
Answer: Its pKa is 3.7.

Question: With `CCCN(C)C` as the molecule, how does the pKa read?
Answer: The pKa was 9.62.

Question: With `Cc1cnoc1C` as the molecule, how does the pKa read?
Answer: The pKa was 0.

Question: For `FC(F)(F)c1nc2ncncc2[nH]1`, which pKa is on record?
Answer: Its pKa is 1.

Question: For `O/N=C/c1ccccc1O`, which pKa is on record?
Answer: The pKa was 1.37.

Question: Which pKa does the source give for `N=C(c1ccccc1)c1cccc(O)c1` here?
Answer: Its pKa is 6.92.

Question: With `Nc1ncc(Cl)s1` as the molecule, how does the pKa read?
Answer: Its pKa is 3.66.

Question: Which pKa does the source give for `Nc1cccc2ccncc12` here?
Answer: Its pKa is 6.06.
